Calls of active or inactive are those of the source. The calls are words filed in the database; no cut-off is given here.
Tests used:
Blood [1] = conditions: mouse, in vivo, iv, 2 min
Description: Biodistribution in ICR mouse blood at 1.1 MBq, iv after 2 mins postinjection

Blood [2] = conditions: mouse, in vivo, iv, 0.5 h
Description: Biodistribution in ICR mouse blood at 1.1 MBq, iv after 30 mins postinjection

Blood [3] = conditions: mouse, in vivo, iv, 1 h
Description: Biodistribution in ICR mouse blood at 1.1 MBq, iv after 60 mins postinjection

Cortex [4] = conditions: mouse, in vivo, iv, 2 min
Description: Biodistribution in ICR mouse cortex at 1.1 MBq, iv after 2 mins postinjection

Cortex [5] = conditions: mouse, in vivo, iv, 0.5 h
Description: Biodistribution in ICR mouse cortex at 1.1 MBq, iv after 30 mins postinjection

Cortex [6] = conditions: mouse, in vivo, iv, 1 h
Description: Biodistribution in ICR mouse cortex at 1.1 MBq, iv after 60 mins postinjection

Cerebellum [7] = conditions: mouse, in vivo, iv, 2 min
Description: Biodistribution in ICR mouse cerebellum at 1.1 MBq, iv after 2 mins postinjection

Cerebellum [8] = conditions: mouse, in vivo, iv, 0.5 h
Description: Biodistribution in ICR mouse cerebellum at 1.1 MBq, iv after 30 mins postinjection

Cerebellum [9] = conditions: mouse, in vivo, iv, 1 h
Description: Biodistribution in ICR mouse cerebellum at 1.1 MBq, iv after 60 mins postinjection

Brain [10] = conditions: mouse, in vivo, iv, 2 min
Description: Biodistribution in remaining brain of ICR mouse at 1.1 MBq, iv after 2 mins postinjection

Brain [11] = conditions: mouse, in vivo, iv, 0.5 h
Description: Biodistribution in remaining brain of ICR mouse at 1.1 MBq, iv after 30 mins postinjection

Brain [12] = conditions: mouse, in vivo, iv, 1 h
Description: Biodistribution in remaining brain of ICR mouse at 1.1 MBq, iv after 60 mins postinjection

in vitro = conditions: human, serum
Description: Metabolic stability in human serum assessed as compound remaining at 3.7 MBq after 120 mins by radio-TLC

Mus musculus [13] = organism: Mus musculus; test: Binding affinity to beta-amyloid plaque in APPswe/PS1deltaE9 double transgenic mouse brain after 3 mins by Thioflavin-S fluorescence-based confocal microscopy; type: tissue-based
Mus musculus [14] = organism: Mus musculus; test: Binding affinity to beta-amyloid plaque in wild type mouse brain after 3 mins by Thioflavin-S fluorescence-based confocal microscopy; type: tissue-based
physchem = conditions: octanol/PBS
Description: Octanol-PBS partition coefficient, log P of the compound by gamma counter

[15] = target: T1, Amyloid-beta precursor protein (Homo sapiens, UniProt P05067); test: biochemical
T1 sequence (P05067 whole entry): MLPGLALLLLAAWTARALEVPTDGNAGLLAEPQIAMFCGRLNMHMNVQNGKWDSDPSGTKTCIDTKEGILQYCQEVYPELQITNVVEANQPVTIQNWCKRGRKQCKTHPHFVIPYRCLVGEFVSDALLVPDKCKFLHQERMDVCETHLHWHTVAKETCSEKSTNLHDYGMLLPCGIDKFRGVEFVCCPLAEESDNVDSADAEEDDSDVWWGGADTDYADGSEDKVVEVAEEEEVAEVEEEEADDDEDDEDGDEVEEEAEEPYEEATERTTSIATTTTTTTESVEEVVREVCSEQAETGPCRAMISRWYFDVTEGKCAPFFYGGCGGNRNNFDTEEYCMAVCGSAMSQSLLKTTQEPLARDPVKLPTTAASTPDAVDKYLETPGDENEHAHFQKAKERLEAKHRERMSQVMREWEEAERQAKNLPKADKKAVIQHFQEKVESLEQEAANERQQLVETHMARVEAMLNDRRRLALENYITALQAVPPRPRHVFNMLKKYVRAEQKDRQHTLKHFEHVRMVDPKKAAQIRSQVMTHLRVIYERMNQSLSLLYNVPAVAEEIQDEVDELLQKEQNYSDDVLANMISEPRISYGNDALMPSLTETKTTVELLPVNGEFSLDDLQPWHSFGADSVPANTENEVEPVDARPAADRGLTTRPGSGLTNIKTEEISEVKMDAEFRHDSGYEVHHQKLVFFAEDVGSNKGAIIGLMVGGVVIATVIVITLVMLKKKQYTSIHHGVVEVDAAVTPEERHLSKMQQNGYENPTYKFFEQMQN
Description: Displacement of [125I]TZDM from amyloid beta (1 to 42) aggregates in Alzheimer's disease-human brain homogenate after 3 hrs by gamma counting

[16] = target: T1, Amyloid-beta precursor protein; test: biochemical; remark: listed apart in the source
Description: Displacement of [3H]PIB from amyloid beta (1 to 42) aggregates in Alzheimer's disease-human brain homogenate after 3 hrs by gamma counting

| Drug uptake (Blood [1]) [% ID/g] | Drug uptake (Blood [2]) [% ID/g] | Drug uptake (Blood [3]) [% ID/g] | Drug uptake (Cortex [4]) [% ID/g] | Drug uptake (Cortex [5]) [% ID/g] | Drug uptake (Cortex [6]) [% ID/g] | Drug uptake (Cerebellum [7]) [% ID/g] | Drug uptake (Cerebellum [8]) [% ID/g] | Drug uptake (Cerebellum [9]) [% ID/g] | Drug uptake (Brain [10]) [% ID/g] | Drug uptake (Brain [11]) [% ID/g] | Drug uptake (Brain [12]) [% ID/g] | remaining at 2 h, 3.7 MBq (in vitro) [%] | Activity (Mus musculus [13]) | Activity (Mus musculus [14]) | logP (physchem) | Ki [15] [nM] | Ki [16] [nM] | SMILES |
| --- | --- | --- | --- | --- | --- | --- | --- | --- | --- | --- | --- | --- | --- | --- | --- | --- | --- | --- |
| 2.08 | 1.13 | 1.11 | 6.62 | 1.2 | 0.73 | 6.24 | 1.38 | 0.98 | 6.3 | 1.91 | 1.32 | 90 | – | – | – | – | – | CNc1ccc(-c2nc3ccc([18F])cc3s2)cc1 |
| 1.55 | 1.04 | 1.02 | 4.39 | 2.17 | 1.61 | 4.45 | 2.03 | 1.16 | 4.26 | 2.8 | 2.01 | 90 | – | – | – | – | – | CN(C)c1ccc(-c2nc3ccc([18F])cc3s2)cc1 |
| – | – | – | – | – | – | – | – | – | – | – | – | – | Active | Active | 3.2 | 5.5 | 0.2 | CNc1ccc(-c2nc3ccc(F)cc3s2)cc1 |
| – | – | – | – | – | – | – | – | – | – | – | – | – | – | – | 3.6 | 5.9 | 0.3 | CN(C)c1ccc(-c2nc3ccc(F)cc3s2)cc1 |
